The values that follow come from ChEMBL document CHEMBL4325834, “De Novo Molecular Design of a Novel Octapeptide That Inhibits In Vivo Melanogenesis and Has Great Transdermal Ability” (J Med Chem, 2018).

Calls of active or inactive are those of the source. The calls are words filed in the database; no cut-off is given here. Where a SMILES comes first, the peptide text is derived from it.

In data set [1] the target is T1, Tyrosinase (Mus musculus) (UniProt P11344).
T1 sequence (whole entry): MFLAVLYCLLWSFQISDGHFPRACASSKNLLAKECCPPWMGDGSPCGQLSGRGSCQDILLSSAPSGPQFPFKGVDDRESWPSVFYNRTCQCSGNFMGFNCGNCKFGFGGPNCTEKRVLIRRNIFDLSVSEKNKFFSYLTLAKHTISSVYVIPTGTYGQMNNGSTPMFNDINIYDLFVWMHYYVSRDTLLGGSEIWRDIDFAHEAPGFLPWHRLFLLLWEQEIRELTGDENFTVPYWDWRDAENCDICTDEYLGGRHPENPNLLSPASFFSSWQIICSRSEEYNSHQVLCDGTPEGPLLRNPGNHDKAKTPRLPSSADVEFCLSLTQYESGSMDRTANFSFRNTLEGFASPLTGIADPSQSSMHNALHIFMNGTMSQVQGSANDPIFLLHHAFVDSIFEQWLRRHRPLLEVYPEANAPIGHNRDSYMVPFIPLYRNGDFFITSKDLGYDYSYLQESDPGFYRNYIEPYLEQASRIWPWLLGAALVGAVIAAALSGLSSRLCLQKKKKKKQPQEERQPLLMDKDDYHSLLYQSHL
Description: Inhibition of TYR activity in mouse B16 cells assessed as increase in whitening at 20 uM preincubated for 72 hrs followed L-dopa substrate addition and measured after 4 hrs by fluorescence microscopy. The data set is classed as cell-based.

Data set [2] concerns LAD2. The data set is described as follows: Proinflammatory activity in human LAD2 cells assessed as increase in mast-cell degranulation by measuring beta-hexosaminidase release at 2 mM preincubated for 30 mins followed 4-nitrophenyl-N-acetyl-beta-D-glucosaminide substrate addition and measured after 90 mins by fluorescence-based microplate reader analysis relative to control. The following applies: lad2, 1.5 h, 2000 µM. The data set is classed as ADME.

Data set [3] is described as follows: Drug uptake in skin basal layer of brown guinea pig at 2 mM dosed topically after 2 to 4 hrs using FITC-labelled compound by H and E staining-based fluorescence microscopy. The data set is classed as ADME, organism-based, Cavia porcellus. As to conditions: in vivo, topical_or_ocular, 2000 µM.
Data set [4] is filed under the species Mus musculus. The data set is described as follows: Effect on ERK phosphorylation in mouse B16 cells up to 80 uM after 72 hrs by Western blot analysis. The data set is classed as cell-based.
Data set [5] deals with Cavia porcellus. The data set is described as follows: Protection against UVB-induced pigmentation in Dunkin-Hartley guinea pig assessed as increase in whitening at 1 to 2 mM using CP hydrogel administered topically post UV radiation for 5 days/week for two consecutive weeks for a total 10 days by Fontana-Masson-staining based assay. The data set is classed as functional, organism-based.

Data set [6] addresses T2, Tyrosinase (Agaricus bisporus) (UniProt O42713).
T2 sequence (whole entry): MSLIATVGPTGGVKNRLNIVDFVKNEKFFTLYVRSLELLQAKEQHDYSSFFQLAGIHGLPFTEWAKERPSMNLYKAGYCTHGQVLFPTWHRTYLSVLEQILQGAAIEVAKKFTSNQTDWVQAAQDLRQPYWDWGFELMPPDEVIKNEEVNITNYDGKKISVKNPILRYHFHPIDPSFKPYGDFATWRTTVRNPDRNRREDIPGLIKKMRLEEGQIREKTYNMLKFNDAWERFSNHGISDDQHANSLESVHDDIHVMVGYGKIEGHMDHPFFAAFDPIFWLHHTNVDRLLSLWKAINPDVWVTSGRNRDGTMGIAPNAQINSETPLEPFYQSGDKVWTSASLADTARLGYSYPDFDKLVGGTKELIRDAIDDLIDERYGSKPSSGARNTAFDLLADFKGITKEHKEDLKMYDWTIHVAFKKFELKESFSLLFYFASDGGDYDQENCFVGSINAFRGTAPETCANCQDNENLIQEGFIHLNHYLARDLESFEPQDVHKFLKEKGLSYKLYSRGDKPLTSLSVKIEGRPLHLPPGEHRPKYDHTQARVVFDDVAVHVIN
Description: Potency index, ratio of IC50 for arbutin to IC50 for test compound for inhibition of mushroom tyrosinase using L-dopa as substrate assessed as reduction in dopachrome production after 20 mins by spectrophotometry.

The nature of data set [7]: Drug uptake in skin epidermis of brown guinea pig at 2 mM dosed topically after 30 mins using FITC-labelled compound by H and E staining-based fluorescence microscopy. The data set is classed as ADME, organism-based, Cavia porcellus. As to conditions: in vivo, topical_or_ocular, 0.5 h, 2000 µM.
Data set [8] has as its system LAD2. The data set is described as follows: Proinflammatory activity in human LAD2 cells assessed as increase in mast-cell degranulation by measuring beta-hexosaminidase release at 1 mM preincubated for 30 mins followed 4-nitrophenyl-N-acetyl-beta-D-glucosaminide substrate addition and measured after 90 mins by fluorescence-based microplate reader analysis relative to control. As to conditions: lad2, 1.5 h, 1000 µM. The data set is classed as ADME.

Data set [9] deals with LAD2. Description: Proinflammatory activity in human LAD2 cells assessed as increase in mast-cell degranulation by measuring beta-hexosaminidase release at 0.5 mM preincubated for 30 mins followed 4-nitrophenyl-N-acetyl-beta-D-glucosaminide substrate addition and measured after 90 mins by fluorescence-based microplate reader analysis relative to control. The data set is classed as ADME. As to conditions: lad2, 1.5 h, 500 µM.

For data set [10], the system named is HaCaT. Description: Cytotoxicity against human HaCaT cells up to 150 uM by MTT assay relative to control. The data set is classed as cell-based. On the technique in general: Formazan colour is commonly taken as a measure of viable cells.
The target in data set [11] is T3, Tyrosinase (Agaricus bisporus, UniProt O42713).
T3 sequence (O42713 whole entry): T2 sequence (whole entry)
The data set is described as follows: Inhibition of mushroom tyrosinase using L-dopa as substrate assessed as reduction in dopachrome production after 20 mins by spectrophotometry.

The target in data set [12] is T1, Tyrosinase (Mus musculus). Description: Inhibition of TYR activity in mouse B16 cells assessed as effect on pallet after exfoliation at 20 uM preincubated for 72 hrs followed L-dopa substrate addition and measured after 4 hrs by fluorescence microscopy. The data set is classed as cell-based.
A short description of data set [13]: Toxicity in Dunkin-Hartley guinea pig model of UVB-induced pigmentation assessed as abnormal morphological changes in dermis at 1 mM to 2 mM administered topically 6 hrs before UV radiation every day for 2 weeks by Fontana-Masson-staining based assay. The data set is classed as tissue-based, Cavia porcellus. The following applies: in vivo, topical_or_ocular, 1000 µM.

Data set [14] has as its system Cavia porcellus. The data set is described as follows: Anti-melanogenic activity in UVB-induced pigmentation Dunkin-Hartley guinea pig model assessed as inhibition of UV-induced melanin production administered topically using PG solvent 6 hrs before UV radiation every day for 2 weeks by Fontana-Masson-staining based assay. The data set is classed as functional, organism-based.

The subject of data set [15] is Cavia porcellus. The data set is described as follows: Prophylactic protection against UVB-induced pigmentation in Dunkin-Hartley guinea pig pigmentation model assessed as increase in whitening administered topically 6 hrs before UV radiation every day for 2 weeks. The data set is classed as functional, organism-based.
Data set [16] is filed under the species Mus musculus. Description: Effect on JNK phosphorylation in mouse B16 cells up to 80 uM after 72 hrs by Western blot analysis. The data set is classed as cell-based. Background: Immunoblotting shows a protein as a band on a membrane.
Data set [17] concerns B16. The data set is described as follows: Downregulation of TYR protein expression in mouse B16 cells after 72 hrs by Western blot analysis. The data set is classed as functional, cell-based.
For data set [18], the system named is Cavia porcellus. The data set is described as follows: Anti-melanogenic activity in UVB-induced pigmentation Dunkin-Hartley guinea pig model assessed as inhibition of UV-induced melanin production in epidermis basal layer at 1 to 2 mM administered topically using PG solvent 6 hrs before UV radiation every day for 2 weeks by Fontana-Masson-staining based assay. The data set is classed as functional, organism-based.

For data set [19], the system named is B16. Description: Cytotoxicity against mouse B16 cells up to 150 uM by MTT assay relative to control. The data set is classed as cell-based.
Data set [20] deals with Cavia porcellus. Description: Anti-melanogenic activity in UVB-induced pigmentation Dunkin-Hartley guinea pig model assessed as inhibition of UV-induced melanin production in epidermis basal layer at 1 to 2 mM administered topically using CP hydrogel 6 hrs before UV radiation every day for 2 weeks by Fontana-Masson-staining based assay. The data set is classed as functional, organism-based.

The nature of data set [21]: Hemolytic activity against human erythrocytes assessed as amount of hemoglobin released from lysed cells up to 150 uM relative to control. The data set is classed as ADME, cell-based, Erythrocyte. The following applies: read-out: Activity.

As a reminder, the IC50 is the concentration needed to halve the response being measured. Regarding `CC(C)[C@H](NC(=O)[C@H](CCCNC(=N)N)NC(=O)[C@H](Cc1ccccc1)NC(=O)[C@H](CS)NC(=O)[C@H](CCCNC(=N)N)NC(=O)[C@@H](N)[C@@H](C)O)C(=O)N[C@@H](CS)C(=O)N[C@@H](CO)C(=O)O` (H-TRCFRVCS-OH), the inhibition entry in [1] and in data set [17] was “Active” each time. The Activity in [2] was 10.51%; in [8], 9.41%; in [9] it was 7.15%; in [10] it was 9%; in data set [13], “Non-Toxic”; in [14], “Dose-dependent effect”. Also, the Activity entry is “Dose-dependent effect” in [15] and 10% in data set [19]. For the same compound, the values for the Drug uptake entry in data set [3] and in [7] were “Not Active” and “Active”, respectively. Also, the result in [4] and in [16] was inactive. In addition, the result in data set [5], in data set [12], in data set [18] and in data set [20] was Active. Further, in data set [6], the Ratio IC50 is 10. Further, the IC50 in [11] turned out to be 53 µM. Moreover, the hemolysis in data set [21] is 1%.
